Reference: patent US11273148B2, “Targeted epigenetic therapy for inherited aortic aneurysm condition” (The Johns Hopkins University, priority 2017, dated 2022)
“Also recorded” adds a separate entry of the source.

What was measured:
[1] = test system: SGS patient fibroblasts; experiment: qPCR of TGFβ target genes in TGFβ1-stimulated primary human dermal fibroblasts; type: cell-based; details: for Expression level of COL3A1 and FN1 relative to β-actin / Expression level of SKI and SMAD7 relative to β-actin: control and SGS patient fibroblasts, vs vehicle treated
Experimental: Primary human dermal fibroblasts were derived from forearm skin biopsies of two controls and two patients with Shprintzen-Goldberg syndrome from previously described. The fibroblasts were cultured in Dulbecco's modified eagle medium (DMEM) with 10% fetal bovine serum (FBS) in the presence of antibiotics and passaged confluence. According to previously described protocols with slight modifications (2), all cell culture experiments were conducted in serum-starved media for 24 hours prior to drug treatment. Stimulation was performed using 10 ng/ml recombinant human TGFβ1 (R&D system). […] Cells were collected at baseline, 6 hours after TGFβ1 stimulation. RNA was extracted from the cells using Trizol (ThermoFisher) by RNeasy mini kit (QIAGEN), as per the manufacturer's manual.
Total RNA was isolated from mouse aortas or cultured cells by RNeasy mini kit (QIAGEN), as per the manufacturer's manual. Quantitative PCR was performed in triplicate with TaqMan Universal PCR Master Mix using an ABI Prism 7900 HT QPCR machine (all from Applied Biosystems), as per the manufacturer's manual. The following prevalidated TaqMan probes were used to detect specific transcripts: Mm00801666_g1 (Collal), Mm01254476_m1 (Col3A1), Mm01256744_m1 (Fn1), Mm04205640_g1 (Cdkn1a), Mm01192932_g1 (Ctgf), and Mm00435860_m1 (Serpine1), Mm00448744_m1 (Ski), Mm00456917_m1 (Skil), Mm00484742_m1 (Smad7) and Mm00607939_s1 (Actb) (Life Technologies). For human samples, the following probes were used: Hs00943809_m1 (COL3A1), Hs00365052_m1 (FN1), Hs00161707_m1 (SKI), Hs01045418_m1 (SKIL) and Hs01060665_g1 (ACTB). Reactions were run in triplicate, and relative quantification for each transcript was obtained by normalizing against housekeeping control transcript such as β-ACTIN (ACTB) according to the formula 2^−Ct/2^−Ct(ACTB).

[2] = test system: VSMC/Ski G34D/+ mice; experiment: Aortic root diameter and growth by echocardiography in C646-treated mice; type: in vivo, mouse; details: for Final absolute aortic root diameter: C646 5 mg/kg/day IP from 8 weeks of age; for Final absolute aortic root diameter / Final absolute aortic root growth rate: 12 weeks of treatment, +/−SEM; for Final absolute aortic root growth rate: C646 5 mg/kg/day IP
Experimental: (§1) C646 (Selleckchem, #S7152) was reconstituted in 10% DMSO (Sigma) dissolved in PBS, and administered daily by intraperitoneal (IP) injection at dose of 5 mg/kg/day. Treatment was initiated at 8 weeks of age and continued for 12 weeks. 10% DMSO in PBS was administered as a control.
Nair hair removal cream was used to remove fur from the anterior thorax of the mice the day prior to echocardiography. According to previously described with slight modifications (1), all echocardiography were performed on mice that were awake and unsedated with the use of the Vevo 2100 imaging system and 40 MHz transducer (Visualsonics). Mice were imaged at 8 weeks of age as a baseline and every 4 weeks thereafter, until 20 weeks of age. Mice aorta were imaged in the parasternal long-axis view. Three separate measurements of the maximal internal dimension at the sinus of Valsalva during systole were made in separate cardiac cycles and averaged. All imaging and analysis was performed blinded to genotype and treatment arm.

[3] = test system: histone 3 lysine 27 acetylation (H3K27ac); experiment: Immunofluorescent detection of H3K27ac in aortic roots; type: in vivo, mouse; details: VSMC/Ski G34D/+ mice, C646 5mg/kg/day vs DMSO-treated
Experimental: For aorta frozen section, harvested aorta with heart was fixed in fresh 4% paraformaldehyde in PBS at 4 degree overnight and then placed in cold 30% sucrose in PBS solution and incubated at 4 degree overnight again. Tissue was then embedded in Tissue-Tek O.C.T compound ad snap-frozen in liquid nitrogen and stored at minus 80 degree until processed.
as §1
Immunofluorescence staining was performed as previous described (3). Frozen 10 μm long-axis view sections were obtained with a cryostat and mounted on glass slides. Sections were dried for at room temperature for overnight prior to staining. Sections were permeabilized in staining buffer (PBS containing 0.1% Triton-X 100) for 30 minutes and then incubated with Fc Receptor Block from Innovex for 30 minutes at room temperature, washed briefly in staining buffer, and then incubated again in blocking solution (0.1% Triton-X 100, 1:50 goat serum, 0.3M glycine) for 30 minutes. […]

[4] = test system: VSMC/Ski G34D/+ mice; experiment: Aortic root histology (VVG and Masson-trichrome staining): wall thickness, elastin fiber disruptions; type: in vivo, mouse; details: for Final absolute aortic wall thickness / Final number of disruptions in elastin fiber architecture: C646 5 mg/kg/day IP, 12 weeks, aortic root sections, +/−SEM
Experimental: According to a previously described protocol with slight modification (1), mice that were analyzed for aortic histology had latex infused into the left ventricle through descending abdominal aorta. Mice were then fixed for 24 hours in 10% neutral buffered formalin and then switched into 70% ethanol until histological analysis was performed.
as §1
According to previously described protocols with slight modifications (1), latex-infused heart and aorta were removed from body and transected just below the level of the aortic annulus, and just above aortic root, and 2-3 mm transverse sections were mounted in 4% agar prior to paraffin fixation. Five micron aortic sections underwent Verhoeff-van Giesen (VVG) and Masson's Trichrome staining, and were imaged 40× magnification, using a Nikon Eclipse E400 microscope. Aortic wall thickness was measured of four sites of four representative sections for each mouse and the disruptions of elastin fiber architecture were counted in four sections every 25 micron from aortic annulus. All analyses were performed blinded to genotype and treatment arm and the results were averaged.

[5] = test system: TGFβ target genes; experiment: qPCR of TGFβ target genes in mouse aorta; type: in vivo; details: C646 treated vs DMSO treated VSMC/Ski G34D/+ mice
From the text: For quantitative RT-PCR and chromatin immunoprecipitation, mice aortic root and ascending aorta (above aortic root to the origin of right brachiocephalic trunk) harvested separately, snap-frozen in liquid nitrogen and stored at minus 80 degrees Celsius until processed. For RNA extraction, Aortas were homogenized in Trizol (ThermoFisher) by FastPrep-24 (MP Biomedicals, LLC.), as per the manufacturer's manual. After homogenization, RNA was extracted by RNeasy mini kit (QIAGEN), as per the manufacturer's manual. RNA samples were then stored once more at minus 80 degrees until quantitative RT-PCR experiment was performed.
C646 (Selleckchem, #S7152) was reconstituted in 10% DMSO (Sigma) dissolved in PBS, and administered daily by intraperitoneal (IP) injection at dose of 5 mg/kg/day. Treatment was initiated at 8 weeks of age and continued for 12 weeks. […]
Total RNA was isolated from mouse aortas or cultured cells by RNeasy mini kit (QIAGEN), as per the manufacturer's manual. Quantitative PCR was performed in triplicate with TaqMan Universal PCR Master Mix using an ABI Prism 7900 HT QPCR machine (all from Applied Biosystems), as per the manufacturer's manual. […] Reactions were run in triplicate, and relative quantification for each transcript was obtained by normalizing against housekeeping control transcript such as β-ACTIN (ACTB) according to the formula 2^−Ct/2^−Ct(ACTB).

[6] = SD208 10 μM for 1 hour pre-treated before TGFβ1 stimulation (10 ng/ml for 6 hours)
[7] = C646 2004 for 24 hours pre-treated before TGFβ1 stimulation
[8] = C646 2004 for 24 hours pre-treated before TGFβ1 stimulation (10 ng/ml for 6 hours)

| SMILES | Expression level of COL3A1 and FN1 relative to β-actin [1, 6] | Expression level of SKI and SMAD7 relative to β-actin [1, 6] | Difference of COL3A1 and FN1 expression level between C646 treated SGS patient fibroblast and vehicle treated control fibroblasts [1, 7] | Difference of SKI expression level between C646 treated SGS patient fibroblast and vehicle treated control fibroblast [1, 7] | TGFβ target gene expression in SGS patient fibroblasts ([1]; comparable efficiency of a TGFβ type I receptor (Alk5) kinase inhibitor) | Expression level of COL3A1 and FN1 relative to β-actin [1, 8] | Expression level of SKI and SMAD7 relative to β-actin [1, 8] | Aortic root diameter (in words) ([2]; C646 treated vs DMSO treated VSMC/Ski G34D/+ mice, echocardiogram) | Final absolute aortic root diameter ([2]; Control mice, echocardiogram) | Final absolute aortic root growth rate ([2]; Control mice) | Final absolute aortic root diameter ([2]; VSMC/Ski G34D/+ mice, echocardiogram) | Final absolute aortic root growth rate ([2]; VSMC/Ski G34D/+ mice) | Aneurysm progression ([2]; systemically-administered C646 in Ski VSMC:G34D/+ mice) | H3K27 acetylation in aortic root [3] | Aortic wall architecture: medial thickening, elastic fiber fragmentation, collagen deposition (in words) ([4]; C646 treated vs DMSO treated VSMC/Ski G34D/+ mice, VVG and Masson-trichrome staining) | Final absolute aortic wall thickness ([4]; Control mice) | Final number of disruptions in elastin fiber architecture ([4]; Control mice) | Final absolute aortic wall thickness ([4]; VSMC/Ski G34D/+ mice) | Final number of disruptions in elastin fiber architecture ([4]; VSMC/Ski G34D/+ mice) | Expression levels of TGFβ target genes relative to β-actin in aorta [5] |
| --- | --- | --- | --- | --- | --- | --- | --- | --- | --- | --- | --- | --- | --- | --- | --- | --- | --- | --- | --- | --- |
| Fc1ccc(Cl)cc1-c1nc(Nc2ccncc2)c2nccnc2n1 [SD208] | significantly decreased expression level | significantly decreased expression level |  |  |  |  |  |  |  |  |  |  |  |  |  |  |  |  |  |  |
| CC1=NN(c2ccc(C(=O)O)cc2)C(=O)C1=Cc1ccc(-c2cc(C)c(C)cc2[N+](=O)[O-])o1 (stereo in doubt) [C646, 4-[(4Z)-4-[[5-(4,5-dimethyl-2-nitrophenyl)furan-2-yl]methylidene]-3-methyl-5-oxopyrazol-1-yl]benzoic acid] |  |  | no significant difference | no significant difference | normalized TGFβ target gene expression | significantly decreased expression level | significantly decreased expression level | normalized aortic root diameter; also recorded: rescued aortic root diameter | 1.686+/−0.024 mm | 0.067+/−0.023 mm/12 weeks | 1.848+/−0.045 mm | 0.119+/−0.042 mm/12 weeks | abrogates aneurysm progression; also recorded: prevented aneurysm progression | decreased H3K27 acetylation; also recorded: prevention of excessive Histone 3 Lysine 27 (H3K27) acetylation | reduced medial thickening and elastic fiber fragmentation and the recovered collagen deposition; also recorded: preserves aortic wall architecture; also recorded: preservation of aortic wall architecture | 58.547+/−1.415 μm | 1+/−0.577 | 63.438+/−1.818 μm | 6+/−1.155 | decreased expression levels of TGFβ target genes except COL1A1, SKI and SKIL; also recorded: normalizes gene expression in the aorta; also recorded: normalization of the TSR |
